Laboratory results from patent US20100179143A1, “NAPHTHYRIDINE, DERIVATIVES AS P13 KINASE INHIBITORS” (Smithkline Beecham Corporation, priority 2007, published 2010).
Where two headings read alike, the source gives them in different places.

Key:
PI3Kα = biological target: T1, PI3Kα (Homo sapiens, UniProt P42336); test: PI3K alpha Leadseeker SPA Assay; type: biochemical; conditions: in at least one experimental run; read-out: IC50 against PI3Kα
T1 construct: His
Description: PI3K alpha Leadseeker SPA Assay
Compounds of the present invention were tested according to the following assays and found as inhibitors of PI3 kinases, particularly PI3Kα. The exemplified compounds were tested and found active against PI3Kα. The IC50's ranged from about 1 nM to 10 μM.
SPA imaging beads are microspheres containing scintillant which emit light in the red region of the visible spectrum. As a result, these beads are ideally suited to use with a CCD imager such as the Viewlux. The Leadseeker beads used in this system are polystyrene beads that have been coupled with polyethyleneimine. When added to the assay mixture, the beads absorb both the substrate (PIP2) and product (PIP3). Adsorbed P^33-PIP3 will cause an increase in signal, measured as ADUs (analog to digital units). This protocol details the use of the PEI-PS Leadseeker beads for assays using His-p110/p85 PI3K alpha.
Solid compounds are typically plated with 0.1 μl of 100% DMSO in all wells (except column 6 and 18) of a 384-well, flat bottom, low volume plate (Greiner 784075). The compounds are serially diluted (3-fold in 100% DMSO) across the plate from column 1 to column 12 and column 13 to column 24 and leave column 6 and 18 containing only DMSO to yield 11 concentrations for each test compound.
The assay buffer contains MOPS (pH 6.5), CHAPS, and DTT. PI3K alpha and PIP2 (L-alpha-D-myo-Phosphatidylinositol 4,5-bisphosphate [P1(4,5)P2]3-O-phospho linked, D(+)-sn-1,2-di-O-octanoylglyceryl, CellSignals #901) are mixed and incubated in the plate with compound for 30 min prior to starting the reaction with the addition of P^33-ATP and MgCl2 (reagents added using Zoom). Enzyme-free wells (column 18) are typically done to determine the low control. PEI-PS Leadseeker beads in PBS/EDTA/CHAPS are added (by Multidrop) to quench the reaction, and the plates are allowed to incubate for at least one hour (typically overnight) before centrifugation. The signal is determined using a Viewlux detector and is then imported into curve fitting software (Activity Base) for construction of concentration response curves. The percent inhibition of activity was calculated relative to high controls (C1, 0.1 μl DMSO in column 6, rows A-P)) and low controls (C2, 5 μl of 40 uM PIP2 in buffer in column 18, rows A-P) using, 100*(1−(U1−C2)/(C1-C2)). The concentration of test compound yielding 50% inhibition was determined using the equation, y=((Vmax*x)/(K+x))+Y2, where “K” was equal to the IC50. The IC50 values were converted to pIC50 values, i.e., −log IC50 in Molar concentration.

neutrophils [1] = conditions: treatment of neutrophils; Thelen et al. 1994; cited from earlier work
neutrophils [2] = conditions: cited from earlier work
Class I PI3-kinases = conditions: cited from earlier work
CK2 protein kinase = conditions: read-out: inhibition of CK2 protein kinase; cited from earlier work

T1 sequence (P42336 whole entry): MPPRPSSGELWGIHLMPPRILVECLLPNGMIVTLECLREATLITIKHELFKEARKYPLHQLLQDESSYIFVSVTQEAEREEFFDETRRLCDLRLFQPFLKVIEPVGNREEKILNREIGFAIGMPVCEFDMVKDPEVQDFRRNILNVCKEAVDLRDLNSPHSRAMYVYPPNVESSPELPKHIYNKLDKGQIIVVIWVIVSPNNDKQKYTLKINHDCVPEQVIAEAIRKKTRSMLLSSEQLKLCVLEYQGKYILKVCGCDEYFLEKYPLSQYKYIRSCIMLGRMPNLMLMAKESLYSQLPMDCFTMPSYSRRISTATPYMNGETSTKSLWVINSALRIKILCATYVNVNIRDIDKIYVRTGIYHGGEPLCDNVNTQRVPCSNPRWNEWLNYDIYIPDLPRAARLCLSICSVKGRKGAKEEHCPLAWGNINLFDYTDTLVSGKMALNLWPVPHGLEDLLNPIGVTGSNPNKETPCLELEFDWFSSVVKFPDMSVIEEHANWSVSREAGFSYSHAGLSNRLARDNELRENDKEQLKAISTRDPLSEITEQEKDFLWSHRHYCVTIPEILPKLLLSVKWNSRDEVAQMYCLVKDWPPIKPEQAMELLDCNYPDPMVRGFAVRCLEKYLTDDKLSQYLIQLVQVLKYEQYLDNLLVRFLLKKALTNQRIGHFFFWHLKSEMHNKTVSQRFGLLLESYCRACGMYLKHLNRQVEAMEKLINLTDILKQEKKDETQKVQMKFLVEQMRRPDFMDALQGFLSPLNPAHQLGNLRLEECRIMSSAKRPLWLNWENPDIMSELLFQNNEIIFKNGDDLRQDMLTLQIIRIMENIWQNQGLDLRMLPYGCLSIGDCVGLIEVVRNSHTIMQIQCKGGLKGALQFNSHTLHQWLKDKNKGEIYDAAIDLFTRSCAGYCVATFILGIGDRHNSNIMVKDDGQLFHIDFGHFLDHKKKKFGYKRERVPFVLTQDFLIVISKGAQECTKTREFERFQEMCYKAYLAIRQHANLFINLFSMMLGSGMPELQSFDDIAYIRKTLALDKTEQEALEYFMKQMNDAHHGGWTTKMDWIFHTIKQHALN
T1 sequence (P27986 whole entry partner): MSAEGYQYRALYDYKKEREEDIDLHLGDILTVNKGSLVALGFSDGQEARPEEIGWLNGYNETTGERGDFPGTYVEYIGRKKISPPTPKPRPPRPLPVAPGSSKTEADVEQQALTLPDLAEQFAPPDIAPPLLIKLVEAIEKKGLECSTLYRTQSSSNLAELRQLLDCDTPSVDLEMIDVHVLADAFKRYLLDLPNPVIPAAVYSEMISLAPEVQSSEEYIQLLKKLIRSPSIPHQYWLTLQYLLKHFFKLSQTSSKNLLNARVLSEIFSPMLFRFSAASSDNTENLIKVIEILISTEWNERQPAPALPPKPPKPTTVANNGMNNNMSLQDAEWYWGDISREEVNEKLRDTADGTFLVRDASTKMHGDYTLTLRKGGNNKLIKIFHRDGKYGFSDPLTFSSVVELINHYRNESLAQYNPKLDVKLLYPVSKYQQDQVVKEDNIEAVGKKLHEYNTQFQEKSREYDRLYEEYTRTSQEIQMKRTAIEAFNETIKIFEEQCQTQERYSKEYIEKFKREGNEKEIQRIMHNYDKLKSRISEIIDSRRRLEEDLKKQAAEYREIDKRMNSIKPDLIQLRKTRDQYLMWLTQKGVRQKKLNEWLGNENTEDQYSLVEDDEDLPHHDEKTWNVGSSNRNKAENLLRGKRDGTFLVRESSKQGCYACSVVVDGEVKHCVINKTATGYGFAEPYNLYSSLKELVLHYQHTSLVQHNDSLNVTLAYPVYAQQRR

SMILES: CS(=O)(=O)Nc1ccc(-c2ccnc3ccc(-c4cncc(S(N)(=O)=O)c4)nc23)cc1 [Example 11, 5-(8-{4-[(methylsulfonyl)amino]phenyl}-1,5-naphthyridin-2-yl)-3-pyridinesulfonamide]
- IC50 (PI3Kα): 6 nM

SMILES: NS(=O)(=O)c1cncc(-c2ccc3nccc(-c4cccc(OC(F)(F)F)c4)c3n2)c1 [Example 9, 5-(8-{3-[(trifluoromethyl)oxy]phenyl}-1,5-naphthyridin-2-yl)-3-pyridinesulfonamide]
- IC50 (PI3Kα): 27 nM

SMILES: OCc1ccc(-c2ccc3nccc(-c4ccncc4)c3n2)o1 [Example 1, {5-[8-(4-pyridinyl)-1,5-naphthyridin-2-yl]-2-furanyl}methanol]
- IC50 (PI3Kα): 40 nM

SMILES: CN1CCN(c2ccnc3ccc(-c4cncc(S(=O)(=O)Nc5ccc(F)cc5F)c4)nc23)CC1 [Example 32, N-(2,4-difluorophenyl)-5-[8-(4-methyl-1-piperazinyl)-1,5-naphthyridin-2-yl]-3-pyridinesulfonamide]
- IC50 (PI3Kα): 50 nM

SMILES: COC[C@H]1OC(=O)c2coc3c2[C@@]1(C)C1=C(C3=O)[C@@H]2CCC(=O)[C@@]2(C)C[C@H]1OC(C)=O [wortmannin]
- fMLP-induced respiratory burst response (neutrophils [1]): prevents the fMLP-induced respiratory burst response
- neutrophil migration (neutrophils [2]): block
- superoxide release (neutrophils [2]): block
- IC50 (Class I PI3-kinases; wortmannin, read-out: IC50 against each of the various Class I PI3-kinases): 0.001 to 0.01 µM

SMILES: CN(C)S(=O)(=O)c1cc(-c2ccc3nccc(-c4ccncc4)c3n2)cnc1N [Example 2, 2-amino-N,N-dimethyl-5-[8-(4-pyridinyl)-1,5-naphthyridin-2-yl]-3-pyridinesulfonamide]
- IC50 (PI3Kα): 3 nM

SMILES: O=c1cc(N2CCOCC2)oc2c(-c3ccccc3)cccc12 [LY294002]
- IC50 (CK2 protein kinase): 5 to 10 µM
- neutrophil migration (neutrophils [2]): block
- superoxide release (neutrophils [2]): block
- IC50 (Class I PI3-kinases; Fruman et al. 1998, read-out: IC50 against each of these PI3-kinases): 15 to 20 µM

SMILES: c1ccc(-c2n[nH]cc2-c2ccc3nccc(-c4ccncc4)c3n2)cc1 [Example 5, 2-(3-phenyl-1H-pyrazol-4-yl)-8-(4-pyridinyl)-1,5-naphthyridine]
- IC50 (PI3Kα): 31 nM
